Test results as given in patent US9464064B2, “HCV helicase inhibitors and methods of use thereof” (University of Kansas, priority 2011, dated 2016).

Target: T1, HCV NS3 helicase NS3h_1b(con1) (Hepatitis C virus genotype 1b, UniProt Q9WMX2)
T1 construct: truncated C-terminally His-tagged NS3 proteins lacking the N-terminal protease, called NS3h; His-tag (C); made in house
Assay: MBHA screen of NCI mechanistic set library at 20 μM (percent inhibition, compound interference)
Format: biochemical
Details: compounds at 20 μM; for Inh. (%) (Inhibition): calculated from Equation 1
Method in brief: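 Molecular beacon-based DNA unwinding assay; compounds screened at 20 μM in triplicate, with DMSO-only negative and 500 nM dT20 positive controls. Fluorescence (ex 643/em 670 nm) was read before and 30 min after adding ATP to 1 mM. Percent inhibition came from the change relative to DMSO controls; interference from pre-ATP fluorescence versus DMSO controls.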

[1] = MBHA with DNA substrate, assay interference calculated with Equation 2
[2] = assay interference calculated with Equation 2 (fluorescence vs DMSO-only controls before ATP)

T1 sequence (Q9WMX2 1192-1657): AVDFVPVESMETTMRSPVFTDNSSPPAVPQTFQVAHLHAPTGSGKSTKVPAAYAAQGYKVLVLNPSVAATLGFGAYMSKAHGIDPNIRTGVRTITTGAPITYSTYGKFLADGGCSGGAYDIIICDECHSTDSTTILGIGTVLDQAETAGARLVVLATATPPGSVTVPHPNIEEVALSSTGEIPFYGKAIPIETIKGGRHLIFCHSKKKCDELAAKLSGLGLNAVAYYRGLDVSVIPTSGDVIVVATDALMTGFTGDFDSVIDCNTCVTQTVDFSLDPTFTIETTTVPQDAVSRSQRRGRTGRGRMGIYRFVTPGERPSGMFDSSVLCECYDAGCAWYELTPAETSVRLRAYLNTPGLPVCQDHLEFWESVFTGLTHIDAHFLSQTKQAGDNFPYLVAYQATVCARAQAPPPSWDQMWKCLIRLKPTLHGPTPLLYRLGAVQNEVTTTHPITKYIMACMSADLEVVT

Compound	Int.* (Ratio) (Interference) [1]	Inh. (%) (Inhibition) (MBHA with DNA substrate)	Inh. (%) (Inhibition) (MBHA with a DNA substrate)	Int.* (Ratio) (Interference) [2]
CN(C)CCOC1(Cc2ccc(Cl)cc2Cl)CCC(C(C)(C)C)CC1.Cl (stereo not shown) [Compound 670224]	0.88	17.9		
Cc1ccc(CC2(OCCN(C)C)CCC(C(C)(C)C)CC2)cc1.O=C(O)/C=C/C(=O)O (stereo not shown) [Compound 670225]	1.04	−16.0		
CN(C)CCOC1(Cc2ccc(F)cc2)CCC(C(C)(C)C)CC1.O=C(O)/C=C/C(=O)O (stereo not shown) [Compound 670226]	1.11	−2.6		
Cc1ccc(CC2(OCCN(C)C)CCC(C(C)(C)C)CC2)cc1.O=C(O)/C=C/C(=O)O (stereo not shown) [Compound 670229]			−28.8	1.17
CC(=O)c1sc2c(c1OC(=O)c1ccc(Cl)cc1Cl)c(=O)n(-c1ccccc1)c(=S)n2-c1ccccc1 [Compound 671136]	0.90	1.2		
COc1ccc(N=C2C(=Nc3ccc(OC)cc3)N(c3ccc(N(C)C)cc3)C(=S)N2c2ccc(OC)cc2)cc1 [Compound 671394]			−5.4	0.86
N[C@@H](Cc1ccc2oc3cc(=O)c4ccccc4c-3nc2c1)C(=O)O [Compound 672425]	0.89	−11.4		
COC(=O)C1CCC(=O)N1C(c1ccc(OC)cc1)c1cc(OC)c(OC)c(OC)c1 (stereo not shown) [Compound 673622]	1.08	−9.6		
NC(=O)N/N=C1\CC2C3CC4C2C4C13 (stereo not shown) [Compound 673912]			−4.0	1.04
Cc1cc(-c2nc3ccccc3s2)ccc1N [Compound 674495]	0.98	−7.5		
CCCN(CCC)C(=S)Sc1nc(C)nc(N2CCN(c3nc(C)nc(SC(=S)N(CCC)CCC)c3[N+](=O)[O-])CC2)c1[N+](=O)[O-] [Compound 675593]			−3.8	1.04
COc1ccccc1[S+]([O-])Nc1ccccc1 (stereo not shown) [Compound 676561]	0.96	17.1		
O=C(O)/C=C\C(=O)O.[N-]=[N+]=Nc1ccc2c(c1)Sc1ccccc1N2CCCCN1CCN(Cc2ccc(C(=O)c3ccccc3)cc2)CC1 [Compound 676963]	0.46	−1.7		
COc1ccc(NC(=O)CC(=O)N2N=C(C)C(N=Nc3ccc(S(=O)(=O)c4ccc(N=NC5C(=O)N(C(=O)CC(=O)Nc6ccc(OC)cc6)N=C5C)cc4)cc3)C2=O)cc1 (stereo not shown) [Compound 677392]	1.00	−18.1		
COc1ccc(OC)c2nc3c(C(=O)NCCN(C)C)cccc3nc12.Cl [Compound 678917]	0.89	28.1		
CN(C)CCNC(=O)c1cccc2[nH]c(-c3ccncc3)nc12.Cl [Compound 678932]	1.05	0.6		

Compound	Int.* (Ratio) (Interference) [1]	Inh. (%) (Inhibition) (MBHA with DNA substrate)	Inh. (%) (Inhibition) (MBHA with a DNA substrate)	Int.* (Ratio) (Interference) [2]
COC(=O)c1c[nH]c2c1-c1cc(C(=O)OCc3ccccc3)n(S(=O)(=O)c3ccc(C)cc3)c1C(=O)C2=O [Compound 679524]	0.85	−2.5		
COC(=O)c1cc(-c2c[nH]cc2C(=O)OCc2ccccc2)cn1S(=O)(=O)c1ccc(C)cc1 [Compound 679527]	0.98	1.5		
CC1=C/C(=N\OCC(=O)O)CC(c2ccc(C(C)C)cc2)C1 (stereo not shown) [Compound 680506]			10.2	0.92
Cl.NC1(CCNC(=O)c2ccccc2)CCN(C(=O)c2ccccc2)CC1 [Compound 680509]			−35.7	0.99
Cc1cc(N(C)C)ccc1N=Nc1ccc2ncccc2c1 [Compound 680516]	0.93	−1.4		
N#CC(NCc1cccc(CNC(C#N)c2ccccc2)c1)c1ccccc1 (stereo not shown) [Compound 681730]	0.88	−2.0		
CCC(C#N)(c1ccccc1)N(CCc1ccccc1)C(=O)c1ccccc1 (stereo not shown) [Compound 681741]	0.92	−16.2		
N#CC(c1ccccc1)N(CCCCCCN(C(=O)c1ccccc1)C(C#N)c1ccccc1)C(=O)c1ccccc1 (stereo not shown) [Compound 681744]	0.98	20.4		
COc1ccc(-c2cc(-c3ccccc3)nc3c2CC(=O)Nc2ccccc2-3)cc1OC [Compound 682769]	0.96	−7.3		
NC1N=C(c2ccc(Cl)cc2)C2=C(N1)c1ccccc1CC2 (stereo not shown) [Compound 682864]	0.97	−1.8		
COc1ccc2cc(CN3CCC(C4CCN(Cc5ccc6cc(OC)ccc6c5)CC4)CC3)ccc2c1.Cl [Compound 683792]	0.93	−8.0		
O=C1Cc2c(-c3ccccc3)cc(-c3cccc(Cl)c3)nc2-c2ccccc2N1 [Compound 684480]			−35.3	1.04
CCOC(=O)NC(Nc1ccc(F)cc1)(C(=O)OCC)C(F)(F)F (stereo not shown) [Compound 684845]			−5.0	0.91
COC(=O)C1=C(C(=O)OC)SC2(S1)C(C(=O)OC)=C(C(=O)OC)Sc1c2ssc1=O [Compound 686349]	0.85	−14.4		
CC1=C(N2CC2)C(=O)C(CO)=C(N2CC2)C1=O [Compound 697726]			−5.6	0.90

Second part, the compound after the results:

Int.* (Ratio) (Interference) [1]	Inh. (%) (Inhibition) (MBHA with DNA substrate)	Inh. (%) (Inhibition) (MBHA with a DNA substrate)	Int.* (Ratio) (Interference) [2]	Compound
0.91	−12.1			CC(C)[Si]1(C(C)C)OCC2OC(n3cnc4c(N)ncnc43)C(N)C2O[Si](C(C)C)(C(C)C)O1 (stereo not shown) [Compound 687330]
		−29.0	1.00	COc1ccc(/C=C2\CCCc3ccccc3C2=O)cc1 [Compound 687667]
		−5.2	0.93	C=CC(=O)N1C/C(=C\c2ccc(Cl)cc2)C(=O)/C(=C/c2ccc(Cl)cc2)C1 [Compound 687849]
0.94	−11.6			C=CC(=O)N1C/C(=C\c2ccc([N+](=O)[O-])cc2)C(=O)/C(=C/c2ccc([N+](=O)[O-])cc2)C1 [Compound 687852]
0.96	−1.6			CNC(=O)c1cc(NC(=O)N(CCC#N)CCN(C(=O)N[C@@H](Cc2ccccc2)C(=O)N[C@@H](CC(C)C)C(=O)NC)c2ccccc2)ccc1OC [Compound 688363]
		9.3	1.02	COc1cc(OC)c2c(C)cc(=O)oc2c1 [Compound 688795]
1.04	−10.4			CCCCCC(/C=C/[C@@H]1CC(=O)C[C@H]1O[Si](C)(C)C(C)(C)C)OCOCCOC (stereo partly shown) [Compound 689228]
		−22.3	0.87	O=C(OCC12CC3CC(CC(C3)C1)C2)c1ccc(NCc2cc(O)ccc2O)cc1 [Compound 689857]
1.01	−2.4			COc1ccc2nc3cc([N+](=O)[O-])ccc3c(NNc3ccccc3)c2c1 [Compound 689872]
0.82	−10.3			O=[N+]([O-])c1cccc2nc3ccccc3c(NCCCNc3c4ccccc4nc4cccc([N+](=O)[O-])c34)c12 [Compound 690634]
0.93	−18.5			CCOC(=O)c1ccc(-c2cc(C)no2)[nH]1 [Compound 693053]
		−26.4	0.98	C/C(=N\Nc1nc2ccccc2s1)c1ccncn1 [Compound 693632]
0.99	13.3			CON(C)C(=O)C1CCCO1 (stereo not shown) [Compound 695218]
		11.6	1.01	CN(C)CC1CCC/C(=C\c2ccc(OC(=O)/C=C/c3ccccc3)cc2)C1=O.Cl (stereo not shown) [Compound 697443]
		−23.8	0.97	CC(=O)NC1C(OCc2ccccc2)OC(CO)C(O)C1OC(C)C(=O)NC(C(=O)NC(CCC(=O)NCCCCNc1c2ccccc2nc2cccc([N+](=O)[O-])c12)C(N)=O)C(C)C (stereo not shown) [Compound 697468]
1.07	−14.4			Cc1ccc(S(=O)(=O)c2ccc([N+](=O)[O-])o2)cc1 [Compound 697923]
0.98	−16.0			Cc1nnc(-n2c(O)cc(=O)n(-c3ccccc3)c2=S)nc1/C=C/c1ccc(N(C)C)cc1 [Compound 698031]
0.38	45.1			CN(C)c1ccc(C=c2c3ccccc3n3c2cc(-c2ccc(Cl)cc2)[n+]3C)cc1.O=S(=O)([O-])C(F)(F)F [Compound 699479]
0.93	−16.2			CCCCn1c2c(n(CCCC)c1=S)-c1c(n(CCCC)c(=S)n1CCCC)SSSS2 [Compound 700582]
